According to patent US9182397B2, “Immunoassay for detecting antibiotics” (DSM IP ASSETS B.V., priority 2011, dated 2015):

Tests used:
Parameters in all cases: key: 0: no intensity; 1: low intensity; 2: medium intensity; 3: high intensity
[1] = test system: Penicillin binding protein purified from Bacillus stearothermophilus; experiment: Detection of Penicillin G in different dairy matrices (Example 24)
Description: (§1) A nitrocellulose HF90 membrane (Millipore; length 25 mm) was used as a detection region. The membrane was glued to a polystyrene laminated card (thickness 0.254 mm) 8 mm from the proximal end of the card. Next, the detection zone and control zone were applied onto the nitrocellulose membrane. The detection zone was applied by dispensing 1 mg/ml of a 7ACA-spacer-BSA conjugate in 20 mM KPO4-buffer (pH 7.5) with a Biodot Dispense workstation XYZ 3050 with frontline at 0.2 μl/cm. The control zone was applied by dispensing 0.15 mg/ml of an anti-IgY antibody in 20 mM KPO4-buffer (pH 7.5) comprising 0.675 mg/ml BSA, 5% w/v saccharose and 20 mM NaCl with a Biodot Dispense workstation XYZ 3050 with frontline at 0.8 μl/cm. After drying of the zones, the nitrocellulose membrane was blocked by spraying a solution comprising 10 mM Tris buffer (pH 8) comprising 2% w/v BSA and 0.05% w/v Tween-20 using a Biodot Dispense workstation XYZ 3050 with airjet 3×. The solution was sprayed onto the membrane at a distance of 2 mm below the detection zone. Thereafter, the sample receiving region (VF2 membrane from Millipore; length 1 cm) was glued at the proximal end of the card overlapping 2 mm with the nitrocellulose membrane. The absorbing region (10038 membrane from Millipore; length 20 mm) was glued at the distal end of the card with an overlap of 2 mm on the nitrocellulose membrane. The obtained cards were dried at 37° C. in a dry atmosphere (0% relative humidity). The card was cut in strips of 5.2 mm width and kept at a dry atmosphere (0% relative humidity).
(§2) Streptavidin-coated gold particles were synthesized by reacting colloidal gold (diameter 40 nm; 1 OD/ml) with 10 μg/ml streptavidin. Next, the obtained solution was concentrated by tangential flow filtration, washed and stored in a Tris buffer (pH 8) including NaCN. Penicillin binding protein purified from Bacillus stearothermophilus was biotinylated (1:4) with D-biotinyl-epsilon-aminocaproic acid-N-hydroxysuccinimide ester. Next, the penicillin binding protein-gold conjugate was synthesized by reacting 1.5 μg biotinylated penicillin binding protein with 1 OD streptavidin-coated gold particles for 1 hour, followed by centrifugation at 10,000×g for 5 minutes and resuspension of the obtained pellet in 45 mM bicarbonate buffer comprising 0.1% w/v Triton X-100 (pH 9.6).
(§3) Thereafter, 140-200 mOD of the penicillin binding protein-gold conjugate and 5-20 mOD of the IgY-gold conjugate was solubilized in 100 μl buffer (80 mM Tris buffer comprising 0.01% w/v Triton-X-100, 0.4% w/v BSA, 5% v/v glycerin and 2% w/v saccharose (pH 8.5)) and 0.75 μl of the solution was dispensed per tube and dried for 12 hours at 40° C. The obtained tubes were sealed.
(§4) 150 μl of spiked milk was added per tube containing the dried conjugates. The concentration of penicillin G in the added milk varied from 0 to 4 ng/g (tube 1: 0 ng/g; […]; tube 2: 2 ng/g; tube 3: 3 ng/g; and tube 4: 4 ng/g). The obtained liquid composition was incubated for 2 minutes at 64° C. in an incubator. A test device was put into the tube and incubated for 3 minutes at 64° C. in the incubator. The result was read by eye.
The test was done essentially as described in Example 3. Instead of raw milk, different dairy matrices were tested. All liquid matrices were measured as such and all powders were first dispersed in water. For milk powder 20 g was dispersed in 250 g distilled water and for whey powder 7.1 g was dispersed in 100 g distilled water.

[2] = test system: Penicillin binding protein purified from Bacillus stearothermophilus; experiment: Detection of Penicillin G after storage of the test device at 4° C. (Example 25)
Description: as §1, §2, §3, §4
The test devices were produced as described above in Examples 1 and 2 and stored at 4° C. At different time periods after production, the test device was used to measure penicillin G. The test was done essentially as described in Example 3.

[3] = test system: Penicillin binding protein purified from Bacillus stearothermophilus; experiment: Detection of Penicillin G after storage of the test device at −20° C. or 30° C. (Example 26)
Description: as §1, §2, §3, §4
The test devices were produced as described above in Examples 1 and 2 and stored at different temperatures (−20° C. and 30° C.). At different time periods after production, the test device was used to detect penicillin G. The test was done essentially as described in Example 3.

Intensity of detection zone ([1]; Pen G 3 ppb, Cocoa): 2
Intensity of detection zone ([1]; Pen G 3 ppb, Cream 10%): 2
Intensity of detection zone ([1]; Pen G 3 ppb, Cream 40%): 2
Intensity of detection zone ([1]; Pen G 3 ppb, Frozen raw buffalo milk (0 ppb gave 1)): 1
Intensity of detection zone ([1]; Pen G 3 ppb, Frozen raw goat milk (0 ppb gave 1)): 1
Intensity of detection zone ([1]; Pen G 3 ppb, Frozen raw milk): 2
Intensity of detection zone ([1]; Pen G 3 ppb, Frozen raw sheep milk (0 ppb gave 1)): 1
Intensity of detection zone ([1]; Pen G 3 ppb, Low fat UHT milk): 2
Intensity of detection zone ([1]; Pen G 3 ppb, Low fat processed milk): 2
Intensity of detection zone ([1]; Pen G 3 ppb, Milk powder (20 g dispersed in 250 g distilled water)): 2
Intensity of detection zone ([1]; Pen G 3 ppb, Pasteurized milk): 2
Intensity of detection zone ([1]; Pen G 3 ppb, UHT milk): 2
Intensity of detection zone ([1]; Pen G 3 ppb, Whey pH 4.5 (0 ppb and control zone gave 0)): 0
Intensity of detection zone ([1]; Pen G 3 ppb, Whey powder (7.1 g dispersed in 100 g distilled water)): 2
Intensity of detection zone ([1]; Pen G 4 ppb, Cocoa): 1
Intensity of detection zone ([1]; Pen G 4 ppb, Cream 10%): 1
Intensity of detection zone ([1]; Pen G 4 ppb, Cream 40%): 2
Intensity of detection zone ([1]; Pen G 4 ppb, Frozen raw buffalo milk (0 ppb gave 1)): 0
Intensity of detection zone ([1]; Pen G 4 ppb, Frozen raw goat milk (0 ppb gave 1)): 0
Intensity of detection zone ([1]; Pen G 4 ppb, Frozen raw milk): 1
Intensity of detection zone ([1]; Pen G 4 ppb, Frozen raw sheep milk (0 ppb gave 1)): 0
Intensity of detection zone ([1]; Pen G 4 ppb, Low fat UHT milk): 1
Intensity of detection zone ([1]; Pen G 4 ppb, Low fat processed milk): 1
Intensity of detection zone ([1]; Pen G 4 ppb, Milk powder (20 g dispersed in 250 g distilled water)): 1
Intensity of detection zone ([1]; Pen G 4 ppb, Pasteurized milk): 1
Intensity of detection zone ([1]; Pen G 4 ppb, UHT milk): 1
Intensity of detection zone ([1]; Pen G 4 ppb, Whey pH 4.5 (0 ppb and control zone gave 0)): 0
Intensity of detection zone ([1]; Pen G 4 ppb, Whey powder (7.1 g dispersed in 100 g distilled water)): 1
Intensity of detection zone ([2]; Pen G 3 ppb, test device stored 0 weeks at 4° C.): 2
Intensity of detection zone ([2]; Pen G 3 ppb, test device stored 4 weeks at 4° C.): 2
Intensity of detection zone ([2]; Pen G 3 ppb, test device stored 7 weeks at 4° C.): 2
Intensity of detection zone ([2]; Pen G 3 ppb, test device stored 15 weeks at 4° C.): 2
Intensity of detection zone ([2]; Pen G 3 ppb, test device stored 18 weeks at 4° C.): 2
Intensity of detection zone ([2]; Pen G 3 ppb, test device stored 26 weeks at 4° C.): 2
Intensity of detection zone ([2]; Pen G 4 ppb, test device stored 0 weeks at 4° C.): 1
Intensity of detection zone ([2]; Pen G 4 ppb, test device stored 4 weeks at 4° C.): 1
Intensity of detection zone ([2]; Pen G 4 ppb, test device stored 7 weeks at 4° C.): 1
Intensity of detection zone ([2]; Pen G 4 ppb, test device stored 15 weeks at 4° C.): 1
Intensity of detection zone ([2]; Pen G 4 ppb, test device stored 18 weeks at 4° C.): 1
Intensity of detection zone ([2]; Pen G 4 ppb, test device stored 26 weeks at 4° C.): 1
Intensity of detection zone ([3]; Pen G 3 ppb, test device stored 0 days at 30° C.): 2
Intensity of detection zone ([3]; Pen G 3 ppb, test device stored 0 days at −20° C.): 2
Intensity of detection zone ([3]; Pen G 3 ppb, test device stored 3 days at 30° C.): 2
Intensity of detection zone ([3]; Pen G 3 ppb, test device stored 3 days at −20° C.): 2
Intensity of detection zone ([3]; Pen G 3 ppb, test device stored 7 days at 30° C.): 2
Intensity of detection zone ([3]; Pen G 3 ppb, test device stored 7 days at −20° C.): 2
Intensity of detection zone ([3]; Pen G 3 ppb, test device stored 28 days at 30° C.): 1
Intensity of detection zone ([3]; Pen G 3 ppb, test device stored 28 days at −20° C.): 2
Intensity of detection zone ([3]; Pen G 4 ppb, test device stored 0 days at 30° C.): 1
Intensity of detection zone ([3]; Pen G 4 ppb, test device stored 0 days at −20° C.): 1
Intensity of detection zone ([3]; Pen G 4 ppb, test device stored 3 days at 30° C.): 1
Intensity of detection zone ([3]; Pen G 4 ppb, test device stored 3 days at −20° C.): 1
Intensity of detection zone ([3]; Pen G 4 ppb, test device stored 7 days at 30° C.): 1
Intensity of detection zone ([3]; Pen G 4 ppb, test device stored 7 days at −20° C.): 1
Intensity of detection zone ([3]; Pen G 4 ppb, test device stored 28 days at 30° C.): 0
Intensity of detection zone ([3]; Pen G 4 ppb, test device stored 28 days at −20° C.): 1
Compound: CC1(C)S[C@@H]2[C@H](NC(=O)Cc3ccccc3)C(=O)N2[C@H]1C(=O)O [Penicillin G]
